Source: patent publication US20240239863A1, “GIP RECEPTOR AGONIST AND USE THEREOF” (HANGZHOU ZHONGMEIHUADONG PHARMACEUTICAL CO., LTD., priority 2022, published 2024)
Non-standard residues stand in square brackets, D forms with d. No end group written: not given here. Aib = CC(C)(N)C(=O)O

How the values were obtained:
[1] = Fasting blood glucose in STZ type 2 diabetic mice after 7 days (Example 9); format: in vivo; conditions: for Fasting Blood Glucose Value, 0 day: 0 day (baseline)
Source text: Male mice were allowed to adapt to new environment for 1 week before treatment. The mice were divided into several groups (n=6-8/group). The individual was screened and divided into groups based on body weight and fasting blood glucose. Grouping was done by screening in a balanced manner, so as to exclude individuals that were too large or too small. A blank buffer or a test compound was subcutaneously administrated to the animals once a day. The individuals in the body weight group were weighted daily before administration, while the individuals in the fasting blood glucose group (fasting for 4 hours) were measured for their blood glucose 7 days after administration.

[2] = Body weight of DIO mice after 28 days of administration (Example 10); format: in vivo, DIO male mice; conditions: 2 nmol/kg s.c. QD
Experimental: Eight or more C57BL/6J male mice at an age of 16 to 18 weeks and fifty-six or more DIO male mice with obesity induced by high-fat feed at an age of 16 to 18 weeks were selected. After entering the animal facility, all mice were adaptively fed for 3 days or more. They were required to adapt for 3 days before grouping. All mice were measured for body weight, body fat ratio and fasting blood glucose. Fifty-six DIO mice were randomly grouped primarily based on body weight and fasting blood glucose and secondarily based on body fat ratio. 8 C57BL/6J mice of close weekly age were assigned into the healthy control group. Each mouse in all groups was housed in a separate cage for 2-3 days to adapt to environment before grouping. During the period, the mice were adaptively caught and administrated with blank solvent daily. The day of grouping was Day 0, and the administration was continued for 28 days. […]
The body weight of each mouse was recorded every day according to the frequency of administration. Postprandial blood glucose was measured every 3 days, fasting blood glucose was measured every 7 days, and IPGTT (Intraperitoneal Glucose Tolerance Tests) was conducted once before the end point. […]

[3] = Body weight of DIO mice, 25 days, different administration ratios (Example 11); format: in vivo; conditions: 30 nmol/kg s.c. QD, Day 25
Source text: (§1) […] high-fat diet-induced obese (DIO) mice were weighed. When the average weight of the mice is about 40-45 g, they are randomly assigned to Groups G2-G11 based on the body weight of the mice, with 8 mice in each group. Eight C57BL/6 mice fed with normal diet were assigned to Group G1. Each mouse in all groups was housed in a separate cage for 2-3 days to adapt to environment before grouping. During this period, the mice were adaptively caught and administrated with blank solvent daily. The day of grouping was Day 0. The Vehicle group was administrated with blank solvent (propylene glycol: 14.0 mg/mL and disodium hydrogen phosphate: 1.132 mg/mL) at pH 7.4; s.c. means subcutaneous injection; the frequency of administration QD means once a day. Such expressions may be applied to the following Examples.
(§2) The animals were weighed before grouping (i.e. before the first administration) and every 3 days after grouping. At the end of the experiment (Day 25), the mice were fasted for 4 hours. The livers of all mice in Groups G1-G8 were collected and weighed. About 20 mg of the livers were homogenized. The homogenate was taken to measure total cholesterol (TC) and […] (TG).

[4] = Liver total cholesterol (TC) and triglyceride (TG) in DIO mice (Example 11); format: in vivo; conditions: 30 nmol/kg s.c. QD, Day 25, fasted 4 hours
Source text: as §1, §2

[5] = Body weight of DIO mice, high dosage, 21 days (Example 12); format: in vivo; conditions: 30 nmol/kg s.c. QD
Source text: 72 diet-induced obese (DIO) mice were weighed. (Screening and Grouping) When the average weight of the mice is about 40-45 g, they are randomly assigned to Groups G2-G11 based on the body weights of the mice, with 8 mice in each group. Eight C57BL/6 mice fed with normal diet were assigned to Group G1. Each mouse in all groups was housed in a separate cage for 2-3 days to adapt to environment before grouping. During this period, the mice were adaptively caught and administrated with blank solvent (propylene glycol: 14.0 mg/mL and disodium hydrogen phosphate: 1.132 mg/mL, pH 7.4) daily. The day of grouping was Day 0.

[6] = biological target: T1, human GIP receptor (glucose-dependent insulinotropic peptide receptor, GIPR) (human, UniProt P48546 22-466); test: cell-based or functional assay
T1 sequence (looked up): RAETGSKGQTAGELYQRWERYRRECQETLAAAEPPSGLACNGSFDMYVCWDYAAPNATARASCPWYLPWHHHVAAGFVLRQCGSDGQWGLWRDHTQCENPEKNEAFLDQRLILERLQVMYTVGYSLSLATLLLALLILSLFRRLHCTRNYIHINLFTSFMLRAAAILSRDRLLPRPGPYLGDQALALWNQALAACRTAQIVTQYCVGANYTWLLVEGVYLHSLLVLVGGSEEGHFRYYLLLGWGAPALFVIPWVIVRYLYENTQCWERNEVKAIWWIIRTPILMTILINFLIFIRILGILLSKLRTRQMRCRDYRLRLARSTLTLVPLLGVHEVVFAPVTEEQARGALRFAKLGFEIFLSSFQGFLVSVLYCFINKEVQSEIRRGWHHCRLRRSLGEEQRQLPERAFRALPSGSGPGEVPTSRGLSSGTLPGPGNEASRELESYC

human GLP-1 receptor = human GLP-1 receptor (human, UniProt P43220 24-463); test: cell-based or functional assay
[7] = 2.4 nmol/kg s.c. once a day, 7 days
[8] = 14.4 nmol/kg s.c. once a day, 7 days

N^6,26-{18-[N-(17-carboxylheptadecanoyl)-L-γ-glutamyl]-10-oxo-3,6,12,15-tetraoxa-9,18-diazaoctadecanoyl}-[8-(2-amino-2-propionic acid), 34-L-arginine] human glucagon-like peptide 1 (7-37) [GLP-1 Analog]
Fasting Blood Glucose Value, 0 day ([1]; 2.4 nmol/kg s.c. once a day): 27.17 ± 2.01 mmol/L
Decrease of Blood Glucose, 7 days [1, 7]: 27.10 ± 13.55%
Fasting Blood Glucose Value, 7 days [1, 7]: 19.82 ± 3.79 mmol/L
Fasting Blood Glucose Value, 0 day ([1]; 14.4 nmol/kg s.c. once a day): 26.96 ± 1.60 mmol/L
Decrease of Blood Glucose, 7 days [1, 8]: 49.30 ± 17.03%
Fasting Blood Glucose Value, 7 days [1, 8]: 13.66 ± 4.94 mmol/L
blood glucose values, single drug treatment ([1]; 2.4 and 14.4 nmol/kg, 7 days): decrease in blood glucose values
Weight [2]: 40.2 ± 1.5 g
Weight Change [2]: −3.2%
Body Weight [3]: 31.1 ± 0.7 g
Body Weight ([3]; listed as GLP-1 Analogs): 31.1 ± 0.7 g
TC [4]: 4.89 ± 0.12 mM
TG [4]: 0.91 ± 0.03 mM
Body Weight Reduction Percentage at Day 21 [5]: 24.7 ± 1.3 %
Body Weight ([5]; Day 21): 33.1 ± 0.7 g

Y[Aib]EGTFISDYSIALDRLHQQDFVNWLLAQKG (also: long-acting conjugating component, site and structure not given here) [Peptide 18 (long-acting conjugate of GIP analog, Seq ID. 18)]
EC50(pM), cell agonistic activity (cAMP, HTRF) [6]: 21.1 pM
EC50(pM), cell agonistic activity (human GLP-1 receptor): > 100 pM

Y[Aib]EGTFISDYSIALDRLHQEDFVNWLLAQKG (also: long-acting conjugating component, site and structure not given here) [Peptide 16 (long-acting conjugate of GIP analog, Seq ID. 16)]
EC50(pM), cell agonistic activity (cAMP, HTRF) [6]: 3.77 pM
EC50(pM), cell agonistic activity (human GLP-1 receptor): > 100 pM

Y[Aib]EGTFISDYSIALDRLHQQDFVKWLLAQRG (also: long-acting conjugating component, site and structure not given here) [Peptide 17 (long-acting conjugate of GIP analog, Seq ID. 17)]
EC50(pM), cell agonistic activity (cAMP, HTRF) [6]: 25.7 pM
EC50(pM), cell agonistic activity (human GLP-1 receptor): > 100 pM
